# Molecular target: T1, AcnA (Staphylococcus aureus, UniProt Q2FYS9)
# T1 sequence (Q2FYS9 1-901): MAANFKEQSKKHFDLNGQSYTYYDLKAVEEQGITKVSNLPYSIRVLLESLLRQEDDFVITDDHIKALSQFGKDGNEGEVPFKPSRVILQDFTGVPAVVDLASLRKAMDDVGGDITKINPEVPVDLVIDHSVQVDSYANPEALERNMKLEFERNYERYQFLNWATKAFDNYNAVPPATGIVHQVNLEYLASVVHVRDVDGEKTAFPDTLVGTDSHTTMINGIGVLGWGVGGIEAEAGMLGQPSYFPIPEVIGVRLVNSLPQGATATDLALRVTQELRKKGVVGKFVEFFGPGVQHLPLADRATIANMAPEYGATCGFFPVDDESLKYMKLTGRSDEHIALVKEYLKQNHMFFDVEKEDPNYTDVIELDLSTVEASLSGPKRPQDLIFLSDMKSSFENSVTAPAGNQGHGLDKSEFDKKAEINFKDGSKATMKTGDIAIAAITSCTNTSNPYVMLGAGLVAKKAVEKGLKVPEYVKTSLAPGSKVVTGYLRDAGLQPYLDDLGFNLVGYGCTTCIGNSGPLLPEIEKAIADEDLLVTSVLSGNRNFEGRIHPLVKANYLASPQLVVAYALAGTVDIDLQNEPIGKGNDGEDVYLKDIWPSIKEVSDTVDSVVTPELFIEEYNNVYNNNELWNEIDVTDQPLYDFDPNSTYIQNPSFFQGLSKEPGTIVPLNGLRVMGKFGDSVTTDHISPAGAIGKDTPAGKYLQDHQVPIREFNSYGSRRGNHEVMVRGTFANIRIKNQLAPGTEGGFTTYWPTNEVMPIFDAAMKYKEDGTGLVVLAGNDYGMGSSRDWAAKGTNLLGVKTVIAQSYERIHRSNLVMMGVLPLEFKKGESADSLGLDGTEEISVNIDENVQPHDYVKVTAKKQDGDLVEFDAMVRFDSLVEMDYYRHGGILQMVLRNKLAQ
# Assay: spectrophotometric, cis-aconitate formation at […] nm
# Assay type: biochemical
# Details: Fe-S cluster reconstituted in vitro
smiles,measurement,value
O=C(O)C[C@H](C(=O)O)[C@@H](O)C(=O)O [isocitrate],"spectrophotometric, cis-aconitate formation at 240 nm",purified AcnA was determined by monitoring the conversion of isocitrate to cis-aconitate spectrophotometrically
